{
  "source": "patent US20100267561A1",
  "about": "“HERBICIDAL PYRIDAZINONE DERIVATIVES” (priority 2007, published 2010)",
  "test_in_all_cases": "Test B pre-/postemergence plant response",
  "type_in_all_cases": "in vivo",
  "key": {"[1]": {"tested_on": "Italian ryegrass (Lolium multiflorum)", "conditions": "Preemergence; for Ryegrass, Italian plant response rating: scale 0 to 100", "procedure,_shortened": "(§1)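 Visual scoring from 0 (no effect) to 100 (complete control) against untreated controls was done 13 to 15 days after greenhouse treatment. Chemicals were formulated in a surfactant-containing non-phytotoxic solvent and applied to soil preemergence or to 1- to 4-leaf (2-18 cm) plants postemergence.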"}, "[2]": {"tested_on": "bermudagrass (Cynodon dactylon)", "conditions": "Preemergence", "procedure,_shortened": "as §1"}, "[3]": {"tested_on": "cocklebur (Xanthium strumarium)", "conditions": "Preemergence", "procedure,_shortened": "as §1"}, "[4]": {"tested_on": "common (oilseed) sunflower (Helianthus annuus)", "conditions": "Preemergence; for Sunflower plant response rating: scale 0 to 100", "procedure,_shortened": "as §1"}, "[5]": {"tested_on": "common ragweed (Ambrosia elation)", "conditions": "Preemergence; for Ragweed plant response rating: scale 0 to 100", "procedure,_shortened": "as §1"}, "[6]": {"tested_on": "goosegrass (Eleusine indica)", "conditions": "Preemergence; for Goosegrass plant response rating: scale 0 to 100", "procedure,_shortened": "as §1"}, "[7]": {"tested_on": "johnsongrass (Sorghum halepense)", "conditions": "Preemergence; for Johnsongrass plant response rating: scale 0 to 100", "procedure,_shortened": "as §1"}, "[8]": {"tested_on": "lambsquarters (Chenopodium album)", "conditions": "Preemergence; for Lambsquarters plant response rating: scale 0 to 100", "procedure,_shortened": "as §1"}, "[9]": {"tested_on": "morningglory (Ipomoea coccinea)", "conditions": "Preemergence; for Morningglory plant response rating: scale 0 to 100", "procedure,_shortened": "as §1"}, "soybean (Glycine max)": {"tested_on": "soybean (Glycine max)", "conditions": "Preemergence; for Soybean plant response rating: scale 0 to 100", "procedure,_shortened": "as §1"}, "[10]": {"tested_on": "surinam grass (Brachiaria decumbens)", "conditions": "Preemergence; for Surinam Grass plant response rating: scale 0 to 100", "procedure,_shortened": "as §1"}, "[11]": {"tested_on": "velvetleaf (Abutilon theophrasti)", "conditions": "Preemergence; for Velvetleaf plant response rating: scale 0 to 100", "procedure,_shortened": "as §1"}, "[12]": {"tested_on": "wheat (Triticum aestivum)", "conditions": "Preemergence", "procedure,_shortened": "as §1"}, "[13]": {"conditions": "31 g ai/ha, scale 0 to 100 (0 no effect, 100 complete control)"}, "[14]": {"conditions": "62 g ai/ha, 0 to 100 scale, 0 no effect, 100 complete control"}, "[15]": {"conditions": "16 g ai/ha, scale 0 to 100 (0 no effect, 100 complete control)"}},
  "data": [
    {"smiles": "C#CCOC(=O)Oc1cnn(C)c(=O)c1-n1nc(-c2ccc(Cl)cc2)cc1C", "note": "[Compound 58]", "values": [
      {"measurement": "Plant response rating, Ryegrass, Italian", "setting": "[1]; [13]", "value": 100},
      {"measurement": "Plant response rating, Ryegrass, Italian", "setting": "[1]; [14]", "value": 100},
      {"measurement": "Ryegrass, Italian plant response rating", "setting": "[1]; 8 g ai/ha", "value": 0},
      {"measurement": "Ryegrass, Italian plant response rating", "setting": "[1]; 16 g ai/ha", "value": 100},
      {"measurement": "Bermudagrass plant response rating", "setting": "[2]; 8 g ai/ha, scale 0 to 100 (0 no effect, 100 complete control)", "value": 100},
      {"measurement": "Plant response rating, Bermudagrass", "setting": "[2]; [15]", "value": 100},
      {"measurement": "Plant response rating, Bermudagrass", "setting": "[2]; [13]", "value": 100},
      {"measurement": "Plant response rating, Bermudagrass", "setting": "[2]; [14]", "value": 100},
      {"measurement": "Plant response rating, Cocklebur", "setting": "[3]; [15]", "value": 0},
      {"measurement": "Plant response rating, Cocklebur", "setting": "[3]; [13]", "value": 0},
      {"measurement": "Plant response rating, Cocklebur", "setting": "[3]; [14]", "value": 0},
      {"measurement": "Cocklebur plant response rating", "setting": "[3]; 8 g ai/ha, scale 0 to 100", "value": 0},
      {"measurement": "Plant response rating, Sunflower", "setting": "[4]; [13]", "value": 0},
      {"measurement": "Plant response rating, Sunflower", "setting": "[4]; [14]", "value": 0},
      {"measurement": "Sunflower plant response rating", "setting": "[4]; 8 g ai/ha", "value": 0},
      {"measurement": "Sunflower plant response rating", "setting": "[4]; 16 g ai/ha", "value": 0},
      {"measurement": "Plant response rating, Ragweed", "setting": "[5]; [13]", "value": 0},
      {"measurement": "Plant response rating, Ragweed", "setting": "[5]; [14]", "value": 0},
      {"measurement": "Ragweed plant response rating", "setting": "[5]; 8 g ai/ha", "value": 0},
      {"measurement": "Ragweed plant response rating", "setting": "[5]; 16 g ai/ha", "value": 0},
      {"measurement": "Plant response rating, Goosegrass", "setting": "[6]; [13]", "value": 95},
      {"measurement": "Plant response rating, Goosegrass", "setting": "[6]; [14]", "value": 100},
      {"measurement": "Goosegrass plant response rating", "setting": "[6]; 8 g ai/ha", "value": 70},
      {"measurement": "Goosegrass plant response rating", "setting": "[6]; 16 g ai/ha", "value": 85},
      {"measurement": "Plant response rating, Johnsongrass", "setting": "[7]; [13]", "value": 40},
      {"measurement": "Plant response rating, Johnsongrass", "setting": "[7]; [14]", "value": 60},
      {"measurement": "Johnsongrass plant response rating", "setting": "[7]; 8 g ai/ha", "value": 0},
      {"measurement": "Johnsongrass plant response rating", "setting": "[7]; 16 g ai/ha", "value": 0},
      {"measurement": "Plant response rating, Lambsquarters", "setting": "[8]; [13]", "value": 95},
      {"measurement": "Plant response rating, Lambsquarters", "setting": "[8]; [14]", "value": 100},
      {"measurement": "Lambsquarters plant response rating", "setting": "[8]; 8 g ai/ha", "value": 0},
      {"measurement": "Lambsquarters plant response rating", "setting": "[8]; 16 g ai/ha", "value": 0},
      {"measurement": "Plant response rating, Morningglory", "setting": "[9]; [13]", "value": 0},
      {"measurement": "Plant response rating, Morningglory", "setting": "[9]; [14]", "value": 0},
      {"measurement": "Morningglory plant response rating", "setting": "[9]; 8 g ai/ha", "value": 0},
      {"measurement": "Morningglory plant response rating", "setting": "[9]; 16 g ai/ha", "value": 0},
      {"measurement": "Plant response rating, Soybean", "setting": "soybean (Glycine max); [13]", "value": 0},
      {"measurement": "Plant response rating, Soybean", "setting": "soybean (Glycine max); [14]", "value": 0},
      {"measurement": "Soybean plant response rating", "setting": "soybean (Glycine max); 8 g ai/ha", "value": 0},
      {"measurement": "Soybean plant response rating", "setting": "soybean (Glycine max); 16 g ai/ha", "value": 0},
      {"measurement": "Plant response rating, Surinam Grass", "setting": "[10]; [13]", "value": 98},
      {"measurement": "Plant response rating, Surinam Grass", "setting": "[10]; [14]", "value": 100},
      {"measurement": "Surinam Grass plant response rating", "setting": "[10]; 8 g ai/ha", "value": 95},
      {"measurement": "Surinam Grass plant response rating", "setting": "[10]; 16 g ai/ha", "value": 98},
      {"measurement": "Plant response rating, Velvetleaf", "setting": "[11]; [13]", "value": 0},
      {"measurement": "Plant response rating, Velvetleaf", "setting": "[11]; [14]", "value": 0},
      {"measurement": "Velvetleaf plant response rating", "setting": "[11]; 8 g ai/ha", "value": 0},
      {"measurement": "Velvetleaf plant response rating", "setting": "[11]; 16 g ai/ha", "value": 0},
      {"measurement": "Plant response rating, Wheat", "setting": "[12]; [13]", "value": 40},
      {"measurement": "Plant response rating, Wheat", "setting": "[12]; [14]", "value": 80},
      {"measurement": "Wheat plant response rating", "setting": "[12]; 16 g ai/ha, scale 0 to 100", "value": 0}
    ]}
  ]
}
